Assay results taken from the NIST ThermoML archive (doi:10.1021/je700152c).
Numbers after ± are expanded uncertainties.

Assay: molar heat capacity at saturation pressure; xn = mol fraction of the nth substance listed

A molar heat capacity (78.15 K, Crystal, x1 = 0.83) of 130.09 ± 1.6 J/K/mol, a molar heat capacity (78.19 K, Metastable crystal, x1 = 0.83) of 130.61 ± 1.6 J/K/mol and a molar heat capacity (80.13 K, Crystal, x1 = 0.83) of 132.44 ± 1.6 J/K/mol were found for CCCCn1cc[n+](C)c1.Cc1ccc(S(=O)(=O)[O-])cc1 [1-butyl-3-methylimidazolium tosylate] + O in this work. It also gave a molar heat capacity (80.17 K, Metastable crystal, x1 = 0.83) of 132.96 ± 1.6 J/K/mol, a molar heat capacity (81.97 K, Crystal, x1 = 0.83) of 134.26 ± 1.6 J/K/mol and a molar heat capacity (82.01 K, Metastable crystal, x1 = 0.83) of 135.05 ± 1.6 J/K/mol. The molar heat capacity (83.83 K, Crystal, x1 = 0.83) was 136.35 ± 1.6 J/K/mol, the molar heat capacity (83.86 K, Metastable crystal, x1 = 0.83) was 137.39 ± 1.6 J/K/mol and the molar heat capacity (85.69 K, Crystal, x1 = 0.83) was 138.43 ± 1.6 J/K/mol. It also gave a molar heat capacity (85.72 K, Metastable crystal, x1 = 0.83) of 139.48 ± 1.6 J/K/mol, a molar heat capacity (87.56 K, Crystal, x1 = 0.83) of 140.78 ± 1.6 J/K/mol and a molar heat capacity (87.59 K, Metastable crystal, x1 = 0.83) of 141.82 ± 1.6 J/K/mol. For the same compound, the molar heat capacity (89.44 K, Crystal, x1 = 0.83) was 142.87 ± 1.6 J/K/mol, the molar heat capacity (89.46 K, Metastable crystal, x1 = 0.83) was 144.17 ± 1.6 J/K/mol and the molar heat capacity (91.33 K, Crystal, x1 = 0.83) was 144.95 ± 1.6 J/K/mol. The molar heat capacity (91.34 K, Metastable crystal, x1 = 0.83) was 146.26 ± 1.6 J/K/mol, the molar heat capacity (93.22 K, Crystal, x1 = 0.83) was 147.04 ± 1.6 J/K/mol and the molar heat capacity (93.23 K, Metastable crystal, x1 = 0.83) was 148.6 ± 1.6 J/K/mol. It also gave a molar heat capacity (95.13 K, Crystal, x1 = 0.83) of 149.12 ± 1.6 J/K/mol, a molar heat capacity (95.13 K, Metastable crystal, x1 = 0.83) of 150.69 ± 1.6 J/K/mol and a molar heat capacity (97.03 K, Metastable crystal, x1 = 0.83) of 153.03 ± 1.6 J/K/mol. It also gave a molar heat capacity (97.04 K, Crystal, x1 = 0.83) of 150.95 ± 1.6 J/K/mol, a molar heat capacity (98.94 K, Metastable crystal, x1 = 0.83) of 155.38 ± 1.8 J/K/mol and a molar heat capacity (98.95 K, Crystal, x1 = 0.83) of 153.03 ± 1.6 J/K/mol. It also gave a molar heat capacity (100.85 K, Metastable crystal, x1 = 0.83) of 157.47 ± 1.8 J/K/mol, a molar heat capacity (100.88 K, Crystal, x1 = 0.83) of 155.12 ± 1.8 J/K/mol and a molar heat capacity (102.77 K, Metastable crystal, x1 = 0.83) of 159.81 ± 1.8 J/K/mol. For the same compound, the molar heat capacity (102.8 K, Crystal, x1 = 0.83) was 156.94 ± 1.8 J/K/mol, the molar heat capacity (104.69 K, Metastable crystal, x1 = 0.83) was 161.9 ± 1.8 J/K/mol and the molar heat capacity (104.74 K, Crystal, x1 = 0.83) was 159.03 ± 1.8 J/K/mol. The molar heat capacity (106.61 K, Metastable crystal, x1 = 0.83) was 164.24 ± 1.8 J/K/mol, the molar heat capacity (106.68 K, Crystal, x1 = 0.83) was 161.12 ± 1.8 J/K/mol and the molar heat capacity (108.55 K, Metastable crystal, x1 = 0.83) was 166.33 ± 1.8 J/K/mol. It also gave a molar heat capacity (108.63 K, Crystal, x1 = 0.83) of 163.2 ± 1.8 J/K/mol, a molar heat capacity (110.48 K, Metastable crystal, x1 = 0.83) of 168.68 ± 1.8 J/K/mol and a molar heat capacity (110.57 K, Crystal, x1 = 0.83) of 165.03 ± 1.8 J/K/mol. The molar heat capacity (112.41 K, Metastable crystal, x1 = 0.83) was 170.76 ± 1.8 J/K/mol, the molar heat capacity (112.53 K, Crystal, x1 = 0.83) was 167.11 ± 1.8 J/K/mol and the molar heat capacity (114.35 K, Metastable crystal, x1 = 0.83) was 173.11 ± 1.8 J/K/mol. It also gave a molar heat capacity (114.48 K, Crystal, x1 = 0.83) of 169.2 ± 1.8 J/K/mol, a molar heat capacity (116.29 K, Metastable crystal, x1 = 0.83) of 175.19 ± 1.8 J/K/mol and a molar heat capacity (116.44 K, Crystal, x1 = 0.83) of 171.02 ± 1.8 J/K/mol. It also gave a molar heat capacity (118.23 K, Metastable crystal, x1 = 0.83) of 177.54 ± 1.8 J/K/mol, a molar heat capacity (118.4 K, Crystal, x1 = 0.83) of 173.11 ± 1.8 J/K/mol and a molar heat capacity (120.18 K, Metastable crystal, x1 = 0.83) of 179.89 ± 1.8 J/K/mol. It also gave a molar heat capacity (120.37 K, Crystal, x1 = 0.83) of 175.19 ± 1.8 J/K/mol, a molar heat capacity (122.12 K, Metastable crystal, x1 = 0.83) of 182.23 ± 1.8 J/K/mol and a molar heat capacity (122.34 K, Crystal, x1 = 0.83) of 177.02 ± 1.8 J/K/mol. The molar heat capacity (124.07 K, Metastable crystal, x1 = 0.83) was 184.32 ± 1.8 J/K/mol, the molar heat capacity (124.3 K, Crystal, x1 = 0.83) was 179.1 ± 1.8 J/K/mol and the molar heat capacity (126.01 K, Metastable crystal, x1 = 0.83) was 186.66 ± 1.8 J/K/mol. It also gave a molar heat capacity (126.27 K, Crystal, x1 = 0.83) of 181.19 ± 1.8 J/K/mol, a molar heat capacity (127.96 K, Metastable crystal, x1 = 0.83) of 189.01 ± 2.1 J/K/mol and a molar heat capacity (128.25 K, Crystal, x1 = 0.83) of 183.28 ± 1.8 J/K/mol. It also gave a molar heat capacity (129.91 K, Metastable crystal, x1 = 0.83) of 191.36 ± 2.1 J/K/mol, a molar heat capacity (130.22 K, Crystal, x1 = 0.83) of 185.36 ± 1.8 J/K/mol and a molar heat capacity (131.86 K, Metastable crystal, x1 = 0.83) of 193.7 ± 2.1 J/K/mol. It also gave a molar heat capacity (132.19 K, Crystal, x1 = 0.83) of 187.45 ± 2.1 J/K/mol, a molar heat capacity (133.81 K, Metastable crystal, x1 = 0.83) of 196.05 ± 2.1 J/K/mol and a molar heat capacity (134.16 K, Crystal, x1 = 0.83) of 189.79 ± 2.1 J/K/mol. The molar heat capacity (134.57 K, Crystal, x1 = 0.3) was 80.15 ± 1.1 J/K/mol, the molar heat capacity (135.75 K, Metastable crystal, x1 = 0.83) was 198.4 ± 2.1 J/K/mol and the molar heat capacity (136.14 K, Crystal, x1 = 0.83) was 192.14 ± 2.1 J/K/mol. The molar heat capacity (137.46 K, Crystal, x1 = 0.3) was 81.31 ± 1.1 J/K/mol, the molar heat capacity (137.7 K, Metastable crystal, x1 = 0.83) was 201 ± 2.1 J/K/mol and the molar heat capacity (138.11 K, Crystal, x1 = 0.83) was 194.75 ± 2.1 J/K/mol. The molar heat capacity (139.65 K, Metastable crystal, x1 = 0.83) was 203.09 ± 2.1 J/K/mol, the molar heat capacity (140.08 K, Crystal, x1 = 0.83) was 197.88 ± 2.1 J/K/mol and the molar heat capacity (140.19 K, Crystal, x1 = 0.3) was 82.47 ± 1.1 J/K/mol. The molar heat capacity (141.59 K, Metastable crystal, x1 = 0.83) was 205.7 ± 2.1 J/K/mol and the molar heat capacity (142.04 K, Crystal, x1 = 0.83) was 201.53 ± 2.1 J/K/mol.
